Results published in PMC12063173, “Metabolic Profiling of a Mediterranean-Inspired (Poly)phenol-Rich Mixture in the Brain: Perfusion Effect and In Vitro Blood–Brain Barrier Transport Validation” (Journal of Agricultural and Food Chemistry, 2025).
Entries after “also recorded” stand apart in the source; their conditions may differ. Where a name gives a salt, the structure may show the parent alone. Read-outs that look alike come from different tables or passages of the source.

Experiments:
[1] = Perfused brain (PB) kinetics of phenolic metabolites after oral capsule; format: in vivo, Sprague–Dawley rats; set-up: AUC0-t PB: concentration or dose not given beside the values; details: for AUC0-t PB / Cmax PB / MRT0-t PB / T1/2 PB / Tmax PB / Tmax: perfused brain, oral capsule, 0-24 h, n = 3 per time point; for PB versus NPB comparison: perfused versus nonperfused brain; for Tmax: male, Sprague-Dawley, rat, 22 mg extract blend per capsule, one capsule per animal
Excerpt: (§1) Statistical analyses were applied depending on the experimental context.

[2] = Nonperfused brain (NPB) kinetics of phenolic metabolites after oral capsule; format: in vivo, Sprague–Dawley rats; set-up: AUC0-t NPB: concentration or dose not given beside the values; details: nonperfused brain, oral capsule, 0-24 h, n = 3 per time point
Excerpt: as §1

[3] = tested on: human brain microvascular endothelial cells (HBMECs); assay: In vitro blood–brain barrier transport (Transwell); format: in vitro ADME; details: HBMEC, mixtures at 2.5 μM final, 2 h
Description: The BBB transport model was established using human brain microvascular endothelial cells (HBMECs), following a methodology previously described.[49] Cells were maintained at 37 °C in a humidified environment with 5% CO2. HBMECs were seeded on 12-well Transwell inserts (12 mm, 0.4 μm pore polyester membrane; Corning, Madrid, Spain) and cultured for 6 days to form confluent monolayers suitable for transport studies. Transport assays were carried out in Hanks’ Balanced Salt Solution (HBSS) supplemented with 0.1% fetal bovine serum (FBS, v/v). The cells were exposed on the apical side to individual phenolic metabolites detected in the brain from the animal study, a representative mixture containing equal concentrations of these metabolites, or a physiological mixture reproducing their relative percentages as observed in the brain. All treatments were applied at a final concentration of 2.5 μM for 2 h (Supporting Information, Table S3). The integrity of the cell monolayers was confirmed by measuring transendothelial electrical resistance (TEER) at the start of the experiment (0 h) and after the last time point (2 h) using an EVOM2 Epithelial Volt Ohm Meter (World Precision Instruments, Inc., USA).
Samples from the apical and basolateral compartments were stored at −80 °C for further analysis. Transport of the compounds was evaluated using UPLC-qTOF as described elsewhere,[38] and transendothelial permeability expressed as a percentage of the ratio between the concentration in the basolateral compartment relative to the total concentration in both compartments.
Finally, one-way ANOVA with Tukey’s multiple comparisons test was exclusively applied to in vitro BBB transport experiments. The three tested conditions for each compound (individual compound, a mixture containing equal concentrations of these compounds, or a physiological mixture reproducing their relative percentages as observed in the brain were evaluated. Plots were performed using GraphPad 9.0 (GraphPad Software, Boston, Massachusetts, USA). Statistical significance was set at P < 0.05.
Figure 3 Transport efficiency of phenolic metabolites across the BBB. Human brain microvascular endothelial cells (HBMEC) were seeded onto semipermeable membranes. […] Detailed composition of both mixtures is given in the Supporting Information, Table S3. Media from the upper and lower compartments were collected, and endothelial transport was evaluated by UPLC-qTOF-MS. The transport percentage (%) was determined by the concentration ratio in the lower compartment to the total concentration (upper and lower compartments). All values are presented as mean ± SD from three independent experiments.

[4] = Targeted metabolomics (UPLC-ESI-QTOF) identification of metabolites in plasma, PB and NPB; details: P plasma, PB perfused brain, NPB nonperfused brain, 1-24 h after oral capsule
Description: Adult male Sprague–Dawley rats weighing 250–300 g were purchased from the Animal Experimentation Service of the University of Murcia (Murcia, Spain). […] Based on the experimental design shown in Figure 1, one capsule was administered by gavage to each fasting animal. A total of 40 animals were used in the study. Thirty animals received a capsule containing a mixture of different Mediterranean food extracts, while ten animals received a capsule with microcrystalline cellulose and served as the control group. […] To minimize animal use in accordance with the 3Rs principle, two control animals were sacrificed at each time point (one PB and one NPB). These controls served to identify potential endogenous compounds or background signals not related to the extract administration. All animals were fasted overnight prior to gavage and euthanized with carbon dioxide.
Plasma samples were extracted with ACN:formic acid (98:2, v/v), centrifuged and evaporated in a speed vacuum concentrator (Savant SPD14 0DDA). The evaporated samples were resuspended in 100 μL MeOH and filtered through 0.22 μm regenerated cellulose filters (Minisart Sartorius, Madrid, Spain). Next, half of the animals at each time point were perfused with ice-cold phosphate-buffered saline, and the blood-free brain was dissected out immediately and stored at – 80 °C until analysis, as previously reported.[37],[48]
Approximately 400 mg of brain tissue (perfused or nonperfused) was weighed and extensively washed with cold PBS to avoid external blood contamination. After weighting, the samples were placed in 2 mL screw cap tubes. […] The evaporated samples were resuspended in 100 μL MeOH and filtered through 0.22 μm regenerated cellulose filters.
We performed a targeted metabolomic analysis using an ultrahigh-performance liquid chromatographic system (UPLC) coupled to a quadrupole-time-of-flight (QTOF) mass spectrometer. The phenolic compounds were separated using an Agilent Poroshell 120 column (100 mm × 3 mm, 2.7 μm) and a 5 μL injection volume. […] The flow rate was set constant at 0.4 mL/min. The spectra were acquired in the m/z range from 100 to 1100, in negative polarity mode and an acquisition rate of 1.5 spectra per second. Quantitative data were processed using the Mass HunterQualitative Analysis software (version B.08.00, Agilent). A target screening strategy was applied for the qualitative analysis of possible metabolites derived from the consumption of the Mediterranean blend. […] These compounds encompass derived metabolites conjugated (glucuronides, sulfates, and sulfoglucuronides, among others). The exact mass of the proposed compound was extracted using an extraction window of 0.01 m/z. Metabolite quantification was performed by integrating the peak areas of their extracted ion chromatograms (EICs). Compounds with available standards were quantified using calibration curves derived from the respective standards, while other metabolites were semiquantified based on their peak area values.

[5] = Plasma pharmacokinetics of phenolic metabolites after oral capsule of (poly)phenol-rich Mediterranean extract mixture; details: for AUC0-t plasma / MRT0-t plasma / T1/2 plasma / Tmax plasma: oral capsule, 0-24 h, n = 6 per time point
Description: Adult male Sprague–Dawley rats weighing 250–300 g were purchased from the Animal Experimentation Service of the University of Murcia (Murcia, Spain). […] Animals were maintained in a temperature-controlled environment with a 12 h light-dark cycle. […] Based on the experimental design shown in Figure 1, one capsule was administered by gavage to each fasting animal. A total of 40 animals were used in the study. Thirty animals received a capsule containing a mixture of different Mediterranean food extracts, while ten animals received a capsule with microcrystalline cellulose and served as the control group. At each time point (1, 3, 6, 8, and 24 h postadministration), six animals from the extract group were sacrificed, three with transcardial perfusion using saline (PB) and three without perfusion (NPB), to assess the distribution of extract-derived metabolites in plasma and brain. To minimize animal use in accordance with the 3Rs principle, two control animals were sacrificed at each time point (one PB and one NPB). […] All animals were fasted overnight prior to gavage and euthanized with carbon dioxide.
Blood samples collected by cardiac puncture in sodium heparin tubes at each time point after sacrifice were immediately centrifuged at 14,000 × g for 15 min at 4 °C, and the plasma was stored at −80 °C until their analysis. Plasma samples were extracted with ACN:formic acid (98:2, v/v), centrifuged and evaporated in a speed vacuum concentrator (Savant SPD14 0DDA). The evaporated samples were resuspended in 100 μL MeOH and filtered through 0.22 μm regenerated cellulose filters (Minisart Sartorius, Madrid, Spain).
We performed a targeted metabolomic analysis using an ultrahigh-performance liquid chromatographic system (UPLC) coupled to a quadrupole-time-of-flight (QTOF) mass spectrometer. The phenolic compounds were separated using an Agilent Poroshell 120 column (100 mm × 3 mm, 2.7 μm) and a 5 μL injection volume. The mobile phases used were 0.1% formic acid in water (A) and 0.1% formic acid in ACN (B), and the gradient was: 0–3 min, 5–15% B; 3–11 min, 15–30% B; 11–14 min, 30–50% B, 14–16 min, 50–90% B. Finally, the B content was decreased to the initial conditions (5%) in 1 min, and the column re-equilibrated for 4 min. The flow rate was set constant at 0.4 mL/min. The spectra were acquired in the m/z range from 100 to 1100, in negative polarity mode and an acquisition rate of 1.5 spectra per second.

[6] = read-out: Cmax plasma, oral capsule, 0-24 h, n = 6 per time point
[7] = male, Sprague-Dawley, rat, 22 mg extract blend per capsule, one capsule per animal
[8] = male, Sprague-Dawley, rat, po, 22 mg extract blend per capsule, one capsule per animal

Molecule	AUC0-t PB [1]	Cmax PB [1]	Tmax PB [1]	AUC0-t NPB [2]	Cmax NPB [2]	Tmax NPB [2]	occurrence [4]	AUC0-t plasma [5]	MRT0-t plasma [5]	T1/2 plasma [5]	Tmax plasma [5]	Cmax [5, 6]	also measured
O=C(O)[C@H]1O[C@@H](Oc2cc(O)cc(CCc3ccc(O)cc3)c2)[C@H](O)[C@@H](O)[C@@H]1O [dihydroresveratrol 3-O-glucuronide]	1.3 ± 0.7 pmol·h/g	0.4 ± 0.1 pmol/g tissue	3.3 ± 2.1 h	5.3 ± 2.8 pmol·h/g	0.5 ± 0.1 pmol/g tissue	6.7 ± 1.2 h	PB, NPB, P	0.993 ± 0.558 µM·h	14 ± 5.8 h	8.1 ± 3.2 h	6.2 ± 2.1 h	93 ± 45 nM	MRT0-t PB [1]: 23 ± 26 h; T1/2 PB [1]: 15 ± 18 h; MRT0-t NPB [2]: 44 ± 1 h; T1/2 NPB [2]: 27 ± 1 h; transport efficiency in MIXperc compared with MIXeq [3]: significantly higher transport efficiencies
COc1cc(CCO)ccc1OS(=O)(=O)O [homovanillic alcohol sulfate]							PB, NPB, P						PB versus NPB comparison [1]: higher concentrations in PB
COc1cc(/C=C/C(=O)O)ccc1OS(=O)(=O)O [ferulic acid 4-O-sulfate]	3.0 ± 0.5 pmol·h/g	0.2 ± 0.1 pmol/g tissue	12 ± 11 h	4.8 ± 2.6 pmol·h/g	0.3 ± 0.2 pmol/g tissue	1.0 ± 0.0 h	PB, NPB, P	1.114 ± 0.459 µM·h	14 ± 5.1 h	12 ± 6.3 h	4.2 ± 1.6 h	129 ± 107 nM	PB versus NPB comparison [1]: significantly lower AUC values in PB compared to NPB; plasma concentration relative to p-coumaric acid 4-O-sulfate [5]: approximately 3 fold
COc1ccc(C2CC(=O)c3c(O)cc(O)cc3O2)cc1O[C@@H]1O[C@H](C(=O)O)[C@@H](O)[C@H](O)[C@H]1O (some centres unmarked) [hesperetin 3′-O-glucuronide]							no detectable levels in PB or NPB	0.011 ± 0.0013 µM·h	23.48 h	14.80 h	5.7 ± 2.7 h	2.7 ± 0.9 nM	
COc1ccc(CCC(=O)O)cc1O [3-(3′-hydroxy-4′-methoxyphenyl)propionic acid)]							PB, NPB, P						PB versus NPB comparison [1]: higher concentrations in PB
O=C1CCC(Cc2ccc(O)c(OS(=O)(=O)O)c2)O1 (centres unmarked) [5-(3,4-dihydroxyphenylvalerolactone) sulfate]							undetectable in both PB and NPB	0.113 ± 0.078 µM·h	31 ± 44 h	19 ± 29 h	4.5 ± 1.7 h	12.1 ± 5 nM	occurrence ([4]; listed as 5-(3,4-dihydroxyphenyl)valerolactone sulfate): exclusively detected in plasma
O=C(O)c1ccc(O)cc1O [2,4-dihydroxybenzoic acid]	44 ± 17 pmol·h/g	4.3 ± 2.8 pmol/g tissue		92 ± 31 pmol·h/g	10 ± 1.2 pmol/g tissue		consistently detected in plasma and brain at all time points; also recorded: PB, NPB, P						Tmax [1]: 10 ± 12 h; PB versus NPB comparison [1]: significantly lower AUC values in PB compared to NPB; Tmax [2, 7]: 14 ± 15 h; MRT last ([2]; male, Sprague-Dawley, rat, 22 mg extract blend per capsule, one capsule per animal, read-out: MRT0-t NPB): 7.9 ± 1.1 h; half-life ([2]; male, Sprague-Dawley, rat, 22 mg extract blend per capsule, one capsule per animal, read-out: T1/2 NPB (converted)): 5.4 ± 3.6 h; concentration in plasma (approximate) [5]: around 500 nM; AUC(0-t) [5, 8]: 6.42 ± 1.92 µM·h; Cmax [5, 8]: 534 ± 211 nM; MRT last [5, 8]: 22 ± 11 h; Tmax [5, 8]: 12 ± 11 h; half-life [5, 8]: 14 ± 6 h
O=S(=O)(O)Oc1ccc(CCO)cc1O [hydroxytyrosol 4′-O-sulfate]	52 ± 30 pmol·h/g	4.8 ± 1.5 pmol/g tissue	2.3 ± 2.5 h	84 ± 22 pmol·h/g	6.3 ± 2.6 pmol/g tissue	2.3 ± 1.2 h	PB, NPB, P	0.793 ± 0.403 µM·h	3.4 ± 0.5 h	3.0 ± 0.6 h	1 ± 0 h	192 ± 76 nM	MRT0-t PB [1]: 18 ± 14 h; T1/2 PB [1]: 12 ± 8.9 h; MRT0-t NPB [2]: 26 ± 22 h; T1/2 NPB [2]: 18 ± 14 h; occurrence ([4]; listed as hydroxytyrosol 4′-sulfate): identified in plasma, perfused brain (PB), and nonperfused brain (NPB)
O=S(=O)(O)Oc1cc(CCO)ccc1O [hydroxytyrosol 3-O-sulfate]	16 ± 7.8 pmol·h/g	3.4 ± 3.1 pmol/g tissue	2.7 ± 2.9 h	60 ± 8.4 pmol·h/g	9.7 ± 5.7 pmol/g tissue	3.0 ± 0.0 h	PB, NPB, P	1.432 ± 0.648 µM·h	4.3 ± 1.0 h	4.0 ± 2.3 h	1.4 ± 0.9 h	303 ± 45 nM	MRT0-t PB [1]: 11 ± 5.9 h; T1/2 PB [1]: 7.3 ± 3.6 h; MRT0-t NPB [2]: 7.1 ± 3.1 h; T1/2 NPB [2]: 7.0 ± 0.7 h; occurrence ([4]; listed as hydroxytyrosol 3-sulfate): identified in plasma, perfused brain (PB), and nonperfused brain (NPB)
O=C(O)CCc1ccccc1O [3-(2-hydroxyphenyl) propionic acid]	1.8 ± 2.2 pmol·h/g	0.6 ± 0.5 pmol/g tissue		1.1 ± 0.8 pmol·h/g	0.3 ± 0.04 pmol/g tissue		PB, NPB, P						Tmax [1]: 9 ± 1.4 h; Tmax [2, 7]: 3.3 ± 4 h; occurrence ([4]; listed as 3-(2-hydroxyphenyl)propionic acid): consistently detected in plasma and brain at all time points; AUC(0-t) [5, 8]: 0.213 ± 0.053 µM·h; Cmax [5, 8]: 20 ± 11 nM; MRT last [5, 8]: 8.89 h; Tmax [5, 8]: 10 h; half-life [5, 8]: 8.26 h
hydroxyphenylacetic acid sulfate							PB, NPB, P						
O=C(O)CCc1ccc(O)c(OS(=O)(=O)O)c1 [dihydrocaffeic acid 3-O-sulfate]							exclusively detected in plasma	0.077 ± 0.031 µM·h	9.0 ± 2.5 h	6.0 ± 1.6 h	4.5 ± 1.7 h	9.6 ± 4.5 nM	
O=S(=O)(O)Oc1ccc(CCO)cc1 [tyrosol 4-O-sulfate]	0.9 ± 1.3 pmol·h/g	0.1 ± 0.08 pmol/g tissue	2.3 ± 3.2 h	31 ± 43 pmol·h/g	4.7 ± 6.1 pmol/g tissue	2.0 ± 1.4 h	PB, NPB, P	0.122 ± 0.116 µM·h	7.15 ± 3.3 h	6.5 ± 1.8 h	1 ± 0 h	20 ± 30 nM	MRT0-t NPB [2]: 7.4 ± 0.4 h; T1/2 NPB [2]: 4.5 ± 1.1 h; occurrence ([4]; listed as tyrosol 4-sulfate): identified in plasma, perfused brain (PB), and nonperfused brain (NPB)
COc1ccc([C@@H]2CC(=O)c3c(O)cc(O[C@@H]4O[C@H](C(=O)O)[C@@H](O)[C@H](O)[C@H]4O)cc3O2)cc1O [hesperetin 7-O-glucuronide]							no detectable levels in PB or NPB	0.036 ± 0.012 µM·h	11 ± 5.8 h	7.4 ± 3.4 h	4.2 ± 2.8 h	4 ± 0.7 nM	
hydroxyphenyl propionic acid sulfate [hydroxyphenyl propionic acid sulfate peak-1]							PB, NPB, P						
